# Reference: US9758503B1, “Coumarin-gossypol derivatives with antitumor activities and a method of preparing the same” (SHAANXI UNIVERSITY OF SCIENCE AND TECHNOLOGY, priority 2017, dated 2017)
# Read-outs that look alike come from different tables or passages of the source.
# What was measured:
# [1] = test system: human hepatoma cells (HepG2); test: MTT tumor cell proliferation inhibition test, HepG2; assay type: cell-based; settings: read-out: Half Inhibitory Concentration IC50 HepG2
# Protocol: (§1) The compounds of the present invention were subjected to tumor cell proliferation inhibition test, and conventional MTT method was used.
# (§2) Cell lines: human hepatoma cells (HepG2), human lung cancer cells (A-549), human gastric cancer cells (SGC-7901). The culture medium was DMEM+15% NBS+double antibody.
# (§3) Sample solution preparation: after dissolving with DMSO (Merck), PBS (−) was added to obtain 100 μmol/L solution or homogeneous suspension. The solution was diluted with PBS (−) in DMSO to a final concentration of 0.1, 1, 10, 20, 40, 60, 80, 100 μmol/L.
# (§4) Gossypol was used as control solution, prepared under the same condition.
# (§5) Cell culture: adherent growth Tumor cells were cultured in 1640 medium containing 10% inactivated neonatal bovine serum and penicillin, streptomycin (1 million U/L), placed in carbon dioxide incubator at 37° C., 5% CO2, and saturated humidity. Cells were treated serially passaged 2-3 times. The first culture was washed with PBS 2 times, and digested with trypsin. Fresh culture medium was added evenly, cells were adjusted to a appropriate concentration and transferred into a new culture flask. Cell in an exponential phase were chosen for the tests.
# (§6) MTT Assay for Cell Viability and IC50 Determination:
# (§7) Experimental Principle: Living cells mitochondria in the dehydrogenase can reduce yellow MTT to water-insoluble blue-violet product MT (MTT formazan), deposited in the cells. The amount of production is proportional to the number of living cells. […] DMSO can dissolve blue violet crystals, and the color depth is proportional to the amount contained, so the absorbance measured by the microplate reader can reflect the cell viability.
# (§8) Methods: The exponential phase cells were digested and counted and seeded in 96-well plates at a density of 2×10^4/mL at 100 μl per well. After 24 hours of incubation, the cells to be tested were treated with 0.1, 1, 10, 20, 40, 60, 80, 100 μmol/L of the compounds. Each experimental group had 5 wells in each concentration, and the culture medium containing 0.4% DMSO was used as control. After 48 hours, the supernatant was discarded, and 100 μl of MTT ((2-(4,5-dimethyl-2-thiazolyl)-3,5-diphenyl-2H-[…]) (1 mg/mL) was added to each well. After another 4 hours, the supernatant was discarded, and 100 μl of DMSO was added to each well. After mixing, the absorbance was measured at 570 nm using a microplate reader. An IC50 calculation software was used to determine the half inhibitory concentration (IC50).
# [2] = test system: human gastric cancer cells (SGC-7901); test: MTT tumor cell proliferation inhibition test, SGC-7901; assay type: cell-based; settings: read-out: Half Inhibitory Concentration IC50 SGC-7901
# Protocol: as §1, §2, §3, §4, §5, §6, §7, §8
# [3] = test system: human lung cancer cells (A-549); test: MTT tumor cell proliferation inhibition test, A-549; assay type: cell-based; settings: read-out: Half Inhibitory Concentration IC50 A549
# Protocol: as §1, §2, §3, §4, §5, §6, §7, §8
# [4] = test system: three cell lines tested (HepG2, A-549, SGC-7901); test: MTT tumor cell proliferation inhibition test, summary over the three cell lines; assay type: cell-based, human
# Protocol: as §1, §2, §3, §4
# as §5, with “Cell in an exponential phase were chosen for the tests.” left out
# as §7, with “the” for “the cells. The amount of production is proportional to the number of living”
# as §8, with “After 24 hours of incubation, the cells to be tested were treated with 0.1, 1, 10, 20, 40, 60, 80, 100 μmol/L of the compounds. Each experimental group had 5 wells in each concentration, and the culture medium containing 0.4% DMSO was used as control.” left out
# [5] = HepG2 cells, MTT, 48 hours treatment
# [6] = SGC-7901 cells, MTT, 48 hours treatment
# [7] = A549 cells, MTT, 48 hours treatment
"IC50 [1, 5]","IC50 [2, 6]","IC50 [3, 7]",SMILES,antitumor activities (verbal summary) [4],"IC50 ([1]; HepG2, 48 h)","IC50 ([2]; SGC-7901, 48 h)","IC50 ([3]; A549, 48 h)"
16.7 ± 0.45 µM,33.2 ± 1.01 µM,28.6 ± 0.64 µM,"Cc1cc2c(c(O)c1-c1c(C)cc3c(c1O)/C(=C/c1c(O)c4ccc(O)cc4oc1=O)C(=O)C(O)=C3C(C)C)/C(=C/c1c(O)c3ccc(O)cc3oc1=O)C(=O)C(O)=C2C(C)C [Compound B-3, (8Z,8′Z)-8,8′-bis((4,7-dihydroxy-2-oxo-2H-chromen-3-yl)methylene)-1,1′,6,6′-tetrahydroxy-5,5′-diisopropyl-3,3′-dimethyl-[2,2′-binaphthalene]-7,7′(8H,8′H)-dione]",–,–,–,–
22.4 ± 0.58 µM,40 ± 1.43 µM,38.4 ± 0.79 µM,"COc1cccc2c(O)c(/C=C3\C(=O)C(O)=C(C(C)C)c4cc(C)c(-c5c(C)cc6c(c5O)/C(=C/c5c(O)c7cccc(OC)c7oc5=O)C(=O)C(O)=C6C(C)C)c(O)c43)c(=O)oc12 [Compound B-4, (8Z,8′Z)-1,1′,6,6′-tetrahydroxy-8,8′-bis((4-hydroxy-8-methoxy-2-oxo-2H-chromen-3-yl)methylene)-5,5′-diisopropyl-3,3′-dimethyl-[2,2′-binaphthalene]-7,7′(8H,8′H)-dione]",–,–,–,–
> 100 µM,> 100 µM,68.5 ± 2.44 µM,"Cc1cc2c(c(O)c1-c1c(C)cc3c(c1O)/C(=C/c1c(O)c4cc(Cl)ccc4oc1=O)C(=O)C(O)=C3C(C)C)/C(=C/c1c(O)c3cc(Cl)ccc3oc1=O)C(=O)C(O)=C2C(C)C [Compound B-2, (8Z,8′Z)-8,8′-bis((6-chloro-4-hydroxy-2-oxo-2H-chromen-3-yl)methylene)-1,1′,6,6′-tetrahydroxy-5,5′-diisopropyl-3,3′-dimethyl-[2,2′-binaphthalene]-7,7′(8H,8′H)-dione]",–,–,–,–
15.2 ± 0.34 µM,26.9 ± 1.35 µM,22.3 ± 0.9 µM,"Cc1cc2c(c(O)c1-c1c(C)cc3c(c1O)/C(=C/c1c(O)c4ccccc4oc1=O)C(=O)C(O)=C3C(C)C)/C(=C/c1c(O)c3ccccc3oc1=O)C(=O)C(O)=C2C(C)C [Compound B-1, (8Z,8′Z)-1,1′,6,6′-tetrahydroxy-8,8′-bis((4-hydroxy-2-oxo-2H-chromen-3-yl)methylene)-5,5′-diisopropyl-3,3′-dimethyl-[2,2′-binaphthalene]-7,7′(8H,8′H)-dione]",good antitumor activities,–,–,–
> 100 µM,54.3 ± 2.85 µM,> 100 µM,"Cc1cc2c(c(O)c1-c1c(C)cc3c(c1O)/C(=C/c1c(O)c4c(O)cc(O)cc4oc1=O)C(=O)C(O)=C3C(C)C)/C(=C/c1c(O)c3c(O)cc(O)cc3oc1=O)C(=O)C(O)=C2C(C)C [Compound B-5, (8Z,8′Z)-1,1′,6,6′-tetrahydroxy-5,5′-diisopropyl-3,3′-dimethyl-8,8′-bis((4,5,7-trihydroxy-2-oxo-2H-chromen-3-yl)methylene)-[2,2′-binaphthalene]-7,7′(8H,8′H)-dione]",–,–,–,–
58.6 ± 3.23 µM,> 100 µM,> 100 µM,"Cc1cc(C)c2c(O)c(/C=C3\C(=O)C(O)=C(C(C)C)c4cc(C)c(-c5c(C)cc6c(c5O)/C(=C/c5c(O)c7c(C)cc(C)cc7oc5=O)C(=O)C(O)=C6C(C)C)c(O)c43)c(=O)oc2c1 [Compound B-6, (8Z,8′Z)-1,1′,6,6′-tetrahydroxy-8,8′-bis((4-hydroxy-5,7-dimethyl-2-oxo-2H-chromen-3-yl)methylene)-5,5′-diisopropyl-3,3′-dimethyl-[2,2′-binaphthalene]-7,7′(8H,8′H)-dione]",–,–,–,–

# More lines, now with the values behind:
SMILES,"IC50 [1, 5]","IC50 [2, 6]","IC50 [3, 7]",antitumor activities (verbal summary) [4],"IC50 ([1]; HepG2, 48 h)","IC50 ([2]; SGC-7901, 48 h)","IC50 ([3]; A549, 48 h)"
"COc1cccc2c(O)c(/C=C3\C(=O)C(O)=C(C(C)C)c4cc(C)c(-c5c(C)cc6c(C(C)C)c(O)c(O)c(C=O)c6c5O)c(O)c43)c(=O)oc12 [Compound A-4, (Z)-1,1′,6,6′,7-pentahydroxy-8′-((4-hydroxy-8-methoxy-2-oxo-2H-chromen-3-yl)methylene)-5,5′-diisopropyl-3,3′-dimethyl-7′-oxo-7′,8′-dihydro-[2,2′-binaphthalene]-8-carbaldehyde]",26.5 ± 1.02 µM,31.2 ± 1.33 µM,43.4 ± 1.21 µM,–,–,–,–
"Cc1cc2c(c(O)c1-c1c(C)cc3c(C(C)C)c(O)c(O)c(C=O)c3c1O)/C(=C/c1c(O)c3ccccc3oc1=O)C(=O)C(O)=C2C(C)C [Compound A-1, (Z)-1,1′,6,6′,7-pentahydroxy-8′-((4-hydroxy-2-oxo-2H-chromen-3-yl)methylene)-5,5′-diisopropyl-3,3′-dimethyl-7′-oxo-7′,8′-dihydro-[2,2′-binaphthalene]-8-carbaldehyde]",10.7 ± 0.65 µM,21.3 ± 1.34 µM,17.1 ± 0.72 µM,best antitumor activities,–,–,–
"Cc1cc2c(c(O)c1-c1c(C)cc3c(C(C)C)c(O)c(O)c(C=O)c3c1O)/C(=C/c1c(O)c3ccc(O)cc3oc1=O)C(=O)C(O)=C2C(C)C [Compound A-3, (Z)-8′-((4,7-dihydroxy-2-oxo-2H-chromen-3-yl)methylene)-1,1′,6,6′,7-pentahydroxy-5,5′-diisopropyl-3,3′-dimethyl-7′-oxo-7′,8′-dihydro-[2,2′-binaphthalene]-8-carbaldehyde]",17.8 ± 0.95 µM,30.7 ± 1.31 µM,26.7 ± 1.12 µM,good antitumor activities,–,–,–
"Cc1cc(C)c2c(O)c(/C=C3\C(=O)C(O)=C(C(C)C)c4cc(C)c(-c5c(C)cc6c(C(C)C)c(O)c(O)c(C=O)c6c5O)c(O)c43)c(=O)oc2c1 [Compound A-6, (Z)-1,1′,6,6′,7-pentahydroxy-8′-((4-hydroxy-5,7-dimethyl-2-oxo-2H-chromen-3-yl)methylene)-5,5′-diisopropyl-3,3′-dimethyl-7′-oxo-7′,8′-dihydro-[2,2′-binaphthalene]-8-carbaldehyde]",42.1 ± 1.04 µM,32.6 ± 1.81 µM,> 100 µM,–,–,–,–
"Cc1cc2c(c(O)c1-c1c(C)cc3c(C(C)C)c(O)c(O)c(C=O)c3c1O)/C(=C/c1c(O)c3cc(Cl)ccc3oc1=O)C(=O)C(O)=C2C(C)C [Compound A-2, (Z)-8′-((6-chloro-4-hydroxy-2-oxo-2H-chromen-3-yl)methylene)-1,1′,6,6′,7-pentahydroxy-5,5′-diisopropyl-3,3′-dimethyl-7′-oxo-7′,8′-dihydro-[2,2′-binaphthalene]-8-carbaldehyde]",> 100 µM,> 100 µM,> 100 µM,–,–,–,–
"Cc1cc2c(c(O)c1-c1c(C)cc3c(C(C)C)c(O)c(O)c(C=O)c3c1O)/C(=C/c1c(O)c3c(O)cc(O)cc3oc1=O)C(=O)C(O)=C2C(C)C [Compound A-5, (Z)-1,1′,6,6′,7-pentahydroxy-5,5′-diisopropyl-3,3′-dimethyl-7′-oxo-8′-((4,5,7-trihydroxy-2-oxo-2H-chromen-3-yl)methylene)-7′,8′-dihydro-[2,2′-binaphthalene]-8-carbaldehyde]",> 100 µM,88.8 ± 3.02 µM,> 100 µM,–,–,–,–
Cc1cc2c(C(C)C)c(O)c(O)c(C=O)c2c(O)c1-c1c(C)cc2c(C(C)C)c(O)c(O)c(C=O)c2c1O [Gossypol],–,–,–,–,18.4 ± 0.71 µM,43.6 ± 2.03 µM,26.3 ± 1.89 µM
